The assay addresses SRPK1 (Homo sapiens). In words: In vitro inhibition of SR protein kinase 1 by compound dissolved in 100% DMSO using 5''-[gamma-33P]-triphosphate.
With `O=C(O)c1ccc2cc3nc(-c4cccs4)c(-c4cccs4)nc3cc2c1` [2,3-Di-thiophen-2-yl-benzo[g]quinoxaline-7-carboxylic acid], the concentration for half-maximal inhibition (IC50) (commonly the concentration that gives 50% inhibition) was determined as 40 nM. Compound `c1csc(-c2nc3cc4ccccc4cc3nc2-c2cccs2)c1` [2,3-Di-thiophen-2-yl-benzo[g]quinoxaline] yielded a half-maximal inhibitory concentration (IC50) of 1360 nM.

With `Oc1cc2nc(-c3cccs3)c(-c3cccs3)nc2cc1O` [2,3-Di-thiophen-2-yl-quinoxaline-6,7-diol], the IC50 turned out to be 9610 nM. For the compound `O=C(O)CCc1ccc(-c2nc3cc4ccccc4cc3nc2-c2ccc(CCC(=O)O)s2)s1` [3-(5-{3-[5-(2-Carboxy-ethyl)-thiophen-2-yl]-benzo[g]quinoxalin-2-yl}-thiophen-2-yl)-propionic acid], the midpoint of inhibition, the IC50, lay at 870 nM. The compound `COC(=O)CCc1ccc(-c2nc3cc4ccccc4cc3nc2-c2ccc(CCC(=O)OC)s2)s1` [3-(5-{3-[5-(2-Methoxycarbonyl-ethyl)-thiophen-2-yl]-benzo[g]quinoxalin-2-yl}-thiophen-2-yl)-propionic acid methyl ester] showed a 50% inhibitory concentration (IC50) of 6130 nM.

Regarding `O=C(O)CCCc1ccc(-c2nc3cc4ccccc4cc3nc2-c2ccc(CCCC(=O)O)s2)s1` [4-(5-{3-[5-(3-Carboxy-propyl)-thiophen-2-yl]-benzo[g]quinoxalin-2-yl}-thiophen-2-yl)-butyric acid], the IC50 turned out to be 820 nM. Compound `O=C(O)C1COc2cc3nc(-c4cccs4)c(-c4cccs4)nc3cc2O1` (stereo unspecified) [6,7-Di-thiophen-2-yl-2,3-dihydro-1,4-dioxa-5,8-diaza-anthracene-2-carboxylic acid] displayed an IC50 of 950 nM.

Compound `c1csc(-c2nc3cc4c(cc3nc2-c2cccs2)OCCO4)c1` [6,7-Di-thiophen-2-yl-2,3-dihydro-1,4-dioxa-5,8-diaza-anthracene] returned a half-inhibitory concentration (IC50) of 23400 nM. As for `COc1cc2nc(-c3cccs3)c(-c3cccs3)nc2cc1OC` [6,7-Dimethoxy-2,3-di-thiophen-2-yl-quinoxaline], half-maximal inhibition (IC50) required 16300 nM.

As to `COc1cc2nc3nc(-c4cccs4)c(-c4cccs4)nc3nc2cc1OC` [7,8-Dimethoxy-2,3-di-thiophen-2-yl-pyrazino[2,3-b]quinoxaline], inhibition was half-maximal at 1140 nM (IC50). The figure for `COC(=O)Cc1csc(-c2nc3cc4ccccc4cc3nc2-c2cc(CC(=O)OC)cs2)c1` [{5-[3-(4-Methoxycarbonylmethyl-thiophen-2-yl)-benzo[g]quinoxalin-2-yl]-thiophen-3-yl}-acetic acid methyl ester] is 11800 nM.

The record behind these values is BindingDB's records for doi:10.1016/j.bmcl.2005.04.064 (Semmelweis University, 2005).
